We go through 16 compounds from PubChem BioAssay (NCI).

Each structure is given as a SMILES string.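 Results reflect a 48-hour exposure of cells in 96-well plates to compound at five concentrations. GI50 is the concentration that inhibits growth by half. TGI marks complete inhibition of growth.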

Common to all, as to test: NCI anticancer screen, dose series, 48 h
For experiment [1], the system named is SF-539 CNS.
Experiment [2] relates to MDA-MB-231 breast.
Experiment [3] relates to U251 CNS.
In experiment [4] the test system is DU-145 prostate.
The test system of experiment [5] is NCI-H522 lung.
Experiment [6] has as its system SK-MEL-5 melanoma.
In experiment [7] the test system is NCI/ADR-RES ovarian.
The test system of experiment [8] is OVCAR-4 ovarian.
Experiment [9] has as its system HCT-116 colon.
For experiment [10], the system named is CAKI-1 renal.

For `COc1ccc(-c2nn3c(-c4cc(F)c(Cl)cc4Cl)nnc3s2)cc1`, the GI50 was 20.8 µM in [1]; 27.7 µM in [2]; 24.6 µM in experiment [3]; 29.1 µM in [4]; 17 µM in experiment [5]; 17.6 µM in experiment [6]. Also, the GI50 is 21.2 µM in [7], 23.5 µM in experiment [8], 20.8 µM in experiment [9] and 37.9 µM in experiment [10]. In addition, the TGI was 44.4 µM in experiment [1]; more than 100 µM in [2]; 74.5 µM in experiment [3]; 83 µM in experiment [4]; 73.1 µM in experiment [5]; 44.7 µM in experiment [6]. In addition, the TGI in experiment [7] was 99.7 µM; in experiment [8] it was 87.4 µM; in experiment [9], 52.9 µM; in [10], more than 100 µM.

Consider `CCCCCCCCCCCCCCCCN1CC2CCCCC2C1` (stereo unspecified), for which the GI50 in [1] was 5.52 µM; in [2] it was 4.01 µM; in experiment [3], 14.5 µM; in [4], 3.85 µM; in [5] it was 4.4 µM; in experiment [6], 5.84 µM. In addition, the GI50 in experiment [7] was 4.56 µM; in [8], 11.9 µM; in experiment [9], 2.97 µM; in experiment [10], 2.49 µM. Also, the TGI was 18.6 µM in experiment [1]; 14 µM in [2]; more than 100 µM in experiment [3]; 14.1 µM in experiment [4]; 17 µM in experiment [5]; 19.5 µM in experiment [6]. Besides, the TGI in experiment [7] came out at 16.8 µM; in experiment [8], 25.9 µM; in [9], 10.8 µM; in experiment [10], 8.91 µM.

As to `CCc1nccc2c1nc(-c1nonc1N)n2CC`, the GI50 in experiment [1] is more than 25 µM; in experiment [2], more than 25 µM; in experiment [3] it was more than 25 µM; in experiment [4], more than 25 µM; in [5] it was more than 17.7 µM; in [6], more than 25 µM. Besides, the GI50 in experiment [7] was more than 25 µM; in experiment [8], more than 25 µM; in [9] it was 20.4 µM; in experiment [10], 12.2 µM. Also, the TGI in experiment [1], in experiment [2], in [3], in [4], in [5] and in experiment [6] was more than 25 µM each time. The TGI in [7], in experiment [8], in [9] and in experiment [10] was more than 25 µM throughout.

Consider `Oc1cccc2ccc(N/N=C/c3cc(CN4CCCCC4)c(O)c4ncccc34)nc12`, for which the GI50 in experiment [1] was 0.0481 µM; in [2], 0.0991 µM; in experiment [3], 0.0329 µM; in experiment [4] it was 0.109 µM; in experiment [5], 0.0314 µM; in [6] it was 0.0239 µM. For the same compound, the GI50 was 0.0463 µM in experiment [7], 0.162 µM in [8], 0.0426 µM in [9] and 0.309 µM in experiment [10]. Moreover, the TGI in experiment [1] amounted to 2.68 µM; in experiment [2], 2.03 µM; in experiment [3], 1.28 µM; in experiment [4], 3.18 µM; in experiment [5] it was 1.21 µM; in [6], 0.0559 µM. Moreover, the TGI was determined as 1.06 µM in experiment [7], 1.6 µM in experiment [8], 1.71 µM in experiment [9] and 2.14 µM in experiment [10].

As to `COc1ccc(/C=C(/C#N)C(N)=O)cc1OC`, the TGI in [1], in experiment [2], in experiment [3], in experiment [4], in [5] and in experiment [6] was more than 100 µM in each case. Moreover, the TGI in [7], in [8], in experiment [9] and in [10] was more than 100 µM each time.

Regarding `COc1cc(C2CC(c3ccc4c(c3)OCO4)=NN2C=O)cc(OC)c1OC` (stereo unspecified), the GI50 in experiment [1] is 2.06 µM; in [2] it was more than 25.3 µM; in [3] it was 4.42 µM; in experiment [4], 2.63 µM; in experiment [5] it was 1.22 µM; in experiment [6], 2.39 µM. For the same compound, the GI50 is 1.13 µM in [7], 6.86 µM in experiment [8], 1.52 µM in experiment [9] and 1.25 µM in [10]. The TGI in experiment [1] is 13 µM; in [2] it was more than 100 µM; in experiment [3], more than 100 µM; in experiment [4], more than 26.1 µM; in [5] it was more than 27.6 µM; in experiment [6] it was 8.11 µM. Also, the TGI in [7] is more than 20.1 µM; in [8] it was more than 100 µM; in experiment [9], more than 100 µM; in experiment [10], more than 100 µM.

As for `CCOC(=O)c1cc(NS(=O)(=O)c2ccccc2)cc(C(=O)OCC)c1`, the GI50 in [1], in experiment [2], in experiment [3], in experiment [4], in [5] and in experiment [6] was more than 100 µM throughout. The GI50 in experiment [7], in [8], in [9] and in experiment [10] was more than 100 µM throughout. For the same compound, the TGI in [1], in experiment [2], in [3], in experiment [4], in experiment [5] and in [6] was more than 100 µM in each case. Besides, the TGI in experiment [7], in experiment [8], in experiment [9] and in experiment [10] was more than 100 µM in each case.

Turning to `O=C(O)/C=C\C(=O)N1C/C(=C\c2ccccc2Cl)C(=O)/C(=C/c2ccccc2Cl)C1`, the GI50 is 3.01 µM in [1]; 3.52 µM in experiment [2]; 0.472 µM in [3]; 2.43 µM in [4]; 1.96 µM in experiment [5]; 3.03 µM in experiment [6]. Moreover, the GI50 in experiment [7] is 4.08 µM; in [8], 3.37 µM; in experiment [9] it was 1.6 µM; in [10] it was 4.29 µM. The TGI in experiment [1] turned out to be 8.24 µM; in experiment [2], 11.5 µM; in experiment [3], 1.88 µM; in [4], 5.48 µM; in experiment [5], 4.1 µM; in [6], 12 µM. Moreover, the TGI in experiment [7] was found to be 22.5 µM; in [8] it was 13.6 µM; in [9], 3.45 µM; in experiment [10], 15 µM.

For `O=C(NCCCCCCNC(=O)n1cc(F)c(=O)[nH]c1=O)NCCCOCCOCCOCCOCCOCCOCCOCCOCCOCCOCCOCCOCCOCCOCCOCCOCCOCCOCCOCCOCCOCCCNC(=O)C(O)C(O)C(O)C(O)CO` (stereo unspecified), the TGI is 43.7 µM in experiment [1]; more than 100 µM in experiment [2]; more than 100 µM in [3]; more than 100 µM in experiment [4]; more than 100 µM in [5]; more than 100 µM in experiment [6]. The TGI in [7], in experiment [8], in experiment [9] and in experiment [10] was more than 100 µM throughout.

As for `CC#C[C@]1(O)CC[C@H]2[C@@H]3CCC4=CC(=O)CCC4=C3[C@@H](c3ccc4c(c3)OCO4)C[C@@]21C`, the GI50 in experiment [1] is 89.2 µM; in experiment [2] it was 90.1 µM; in experiment [3], 108 µM; in experiment [4], 138 µM; in experiment [5], 110 µM; in experiment [6], 66.1 µM. The GI50 is 92.4 µM in experiment [7], 61.1 µM in experiment [8] and 31.2 µM in experiment [9]. Besides, the TGI in experiment [1] is 274 µM; in experiment [2], 327 µM; in [3] it was 410 µM; in [4], 391 µM; in experiment [5] it was 460 µM; in [6], 199 µM. The figures for the TGI in experiment [7], in experiment [8] and in [9] were more than 1000 µM, 989 µM and 126 µM, respectively.

For the compound `COc1ccc(-c2nc3sc4c(c3c(=O)[nH]2)CCCCCC4)cc1`, the GI50 was 2.56 µM in [1]; 4.04 µM in [2]; more than 33.2 µM in experiment [4]; 2.55 µM in [5]; 2.52 µM in experiment [6]; 2.16 µM in [7]. The GI50 in experiment [9] is 1.39 µM; in experiment [10], more than 33.2 µM. In addition, the TGI in experiment [1], in [2], in experiment [4], in experiment [5], in experiment [6] and in experiment [7] was more than 33.2 µM each time. The TGI in experiment [9] and in experiment [10] was more than 33.2 µM each time.

For the compound `CC(CCC(=O)O)[C@H]1CCC2[C@@H]3CC[C@@H]4CC(O)CC[C@]4(C)C3CC[C@@]21C` (stereo partly specified), the GI50 was 26 µM in experiment [1]; 58.7 µM in experiment [2]; 40.2 µM in [3]; 44.4 µM in experiment [4]; 68.1 µM in experiment [5]; 54.3 µM in experiment [7]. The GI50 is 31.4 µM in experiment [8], 30.4 µM in experiment [9] and 26.7 µM in experiment [10]. In addition, the TGI in experiment [1] was 72.4 µM; in [2], more than 100 µM; in experiment [3], more than 100 µM; in experiment [4], more than 100 µM; in experiment [5] it was more than 100 µM; in experiment [7], more than 100 µM. Besides, the TGI in experiment [8] is more than 100 µM; in [9], more than 100 µM; in experiment [10] it was 72.3 µM.

As to `O=C1CC(c2ccc(O)cc2)C2(O1)C(=O)OC(C(O)CO)C2O` (stereo unspecified), the TGI in experiment [1], in experiment [2], in experiment [3], in experiment [4], in [6] and in experiment [7] was more than 100 µM each time. The TGI in [9] and in [10] was more than 100 µM throughout.

On to `OC(c1cc(-c2ccccc2)nc2ccc(Cl)cc12)C1CCCCN1` (stereo unspecified), for which the GI50 in experiment [1] is 1.84 µM; in [2], 1.78 µM; in experiment [4], 3.07 µM; in [5] it was 2.11 µM; in experiment [6], 1.91 µM; in [7] it was 2.25 µM. Further, the GI50 in [8] is 3.24 µM; in experiment [9], 1.76 µM; in [10], 2.1 µM. For the same compound, the TGI in experiment [1] is 3.52 µM; in experiment [2] it was 3.94 µM; in experiment [4] it was 8.74 µM; in [5], 4.53 µM; in experiment [6], 3.47 µM; in [7], 5.35 µM. Besides, the TGI was 8.96 µM in [8], 3.21 µM in experiment [9] and 5.9 µM in experiment [10].

Turning to `NCCOCCOCCNc1nc(Cc2ccccc2)nc(NCCCN2CCCC2=O)n1`, the GI50 in experiment [1], in experiment [2], in [3], in experiment [4], in [6] and in experiment [7] was more than 100 µM throughout. Besides, the GI50 in experiment [8], in experiment [9] and in experiment [10] was more than 100 µM in each case. The TGI in experiment [1], in experiment [2], in experiment [3], in experiment [4], in experiment [6] and in experiment [7] was more than 100 µM in each case. Besides, the TGI in [8], in experiment [9] and in experiment [10] was more than 100 µM each time.

For `COc1cc(/C=C/c2cc(O)c3cc(C(C)=O)c(=O)oc3c2)cc2c1O[C@]1(C)CC[C@@H](O)C(C)(C)[C@H]1C2`, the TGI was more than 23.6 µM in [1]; more than 92.3 µM in experiment [2]; more than 81.4 µM in experiment [3]; more than 45.6 µM in experiment [4]; more than 53 µM in experiment [5]; more than 88.9 µM in experiment [7]. Also, the TGI in experiment [8] was more than 74.3 µM; in [9], more than 52.3 µM; in experiment [10], more than 39.4 µM. The GI50 is more than 26.7 µM in experiment [2]; more than 27.8 µM in [4]; more than 25.9 µM in experiment [5]; more than 36.4 µM in experiment [7]; more than 43 µM in [8]; more than 19.7 µM in experiment [9].
